# Values joined by “and” are separate entries in the source; they are usually repeats but may differ in a detail not shown here. Equal values may be shown once.
# Test system: 521955-158-R2-J5-PDC complex spheroid growth, % test/control
# Test: Anticancer human tumor 521955-158-R2-J5-PDC patient-derived pancreatic carcinoma cell line growth inhibition [Asc]
# Conditions: for IC50: curve of first compound; for viability, T/C: stronger effect = lower value
# Procedure, shortened: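 Tumor cells were grown as complex spheroids with human endothelial cells (HUVEC) and human mesenchymal stem cells as stroma. Agents were tested alone and in combination, in half-log steps down from the clinical Cmax, or from 10 microM where Cmax was unknown.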
# 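Note: spheroids exposed to agents for 7 days before readout.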
# 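Throughout, for viability, T/C: 100% = DMSO vehicle control viability.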
smiles,measurement,setting,value
Cc1nc(N2CCC3(CC2)COC(C)C3N)c(CO)nc1Sc1ccnc(N)c1Cl (stereo unspecified) + CCN1C(C(=O)NC23CCC(C(=O)O)(CC2)CC3)C(c2cccc(Cl)c2F)C2(C(=O)Nc3cc(Cl)ccc32)C12CCCCC2,IC50,second compound 0.03 µM,1.5 µM
same,IC50,second compound 0.0949 µM,> 3 µM
same,IC50,second compound 0.3 µM,1.31 µM
same,IC50,second compound 0.949 µM,> 3 µM
same,IC50,second compound 3 µM,> 3 µM
same,"viability, T/C","second compound 0.03 µM, first compound 0.00949 µM",75.7%
same,"viability, T/C","second compound 0.03 µM, first compound 0.03 µM",75.9%
same,"viability, T/C","second compound 0.03 µM, first compound 0.0949 µM",65.8%
same,"viability, T/C","second compound 0.03 µM, first compound 0.3 µM",60.8%
same,"viability, T/C","second compound 0.03 µM, first compound 0.949 µM",47.5%
same,"viability, T/C","second compound 0.03 µM, first compound 3 µM",50.3%
same,"viability, T/C","second compound 0.0949 µM, first compound 0.00949 µM",88.3%
same,"viability, T/C","second compound 0.0949 µM, first compound 0.03 µM",95.6%
same,"viability, T/C","second compound 0.0949 µM, first compound 0.0949 µM",70.2%
same,"viability, T/C","second compound 0.0949 µM, first compound 0.3 µM",80.2%
same,"viability, T/C","second compound 0.0949 µM, first compound 0.949 µM",70.8%
same,"viability, T/C","second compound 0.0949 µM, first compound 3 µM",57.6%
same,"viability, T/C","second compound 0.3 µM, first compound 0.00949 µM",88.5%
same,"viability, T/C","second compound 0.3 µM, first compound 0.03 µM",87.1%
same,"viability, T/C","second compound 0.3 µM, first compound 0.0949 µM",71.2%
same,"viability, T/C","second compound 0.3 µM, first compound 0.3 µM",59.2%
same,"viability, T/C","second compound 0.3 µM, first compound 0.949 µM",62%
same,"viability, T/C","second compound 0.3 µM, first compound 3 µM",37.8%
same,"viability, T/C","second compound 0.949 µM, first compound 0.00949 µM",97.7%
same,"viability, T/C","second compound 0.949 µM, first compound 0.03 µM",87.8%
same,"viability, T/C","second compound 0.949 µM, first compound 0.0949 µM",85%
same,"viability, T/C","second compound 0.949 µM, first compound 0.3 µM",67.2%
same,"viability, T/C","second compound 0.949 µM, first compound 0.949 µM",68.1%
same,"viability, T/C","second compound 0.949 µM, first compound 3 µM",69.5%
same,"viability, T/C","second compound 3 µM, first compound 0.00949 µM",139%
same,"viability, T/C","second compound 3 µM, first compound 0.03 µM",122%
same,"viability, T/C","second compound 3 µM, first compound 0.0949 µM",101%
same,"viability, T/C","second compound 3 µM, first compound 0.3 µM",96.6%
same,"viability, T/C","second compound 3 µM, first compound 0.949 µM",90.6%
same,"viability, T/C","second compound 3 µM, first compound 3 µM",99%
Cc1nc(N2CCC3(CC2)COC(C)C3N)c(CO)nc1Sc1ccnc(N)c1Cl (stereo unspecified),"viability, T/C",compound 0.00949 µM,70.6% and 72.1% and 91.2%
same,"viability, T/C",compound 0.03 µM,68.2% and 54.1% and 87.1%
same,"viability, T/C",compound 0.0949 µM,59.4% and 48.2% and 62.4%
same,"viability, T/C",compound 0.3 µM,48.2% (2×) and 65.5%
same,"viability, T/C",compound 0.949 µM,55.2% and 53.1% and 52.7%
same,"viability, T/C",compound 3 µM,51.9% and 43.2% and 57.4%
CCN1C(C(=O)NC23CCC(C(=O)O)(CC2)CC3)C(c2cccc(Cl)c2F)C2(C(=O)Nc3cc(Cl)ccc32)C12CCCCC2 (stereo unspecified) + CNC(C)C(=O)NC1CN(S(=O)(=O)c2cccc(S(=O)(=O)N3CCC4CCC(C(=O)NC(c5ccccc5)c5ccccc5)N4C(=O)C(NC(=O)C(C)NC)C3)c2)CCC2CCC(C(=O)NC(c3ccccc3)c3ccccc3)N2C1=O,IC50,second compound 0.01 µM,> 3 µM
same,IC50,second compound 0.0316 µM,> 3 µM
same,IC50,second compound 0.1 µM,> 3 µM
same,IC50,second compound 0.316 µM,> 3 µM
same,IC50,second compound 1 µM,> 3 µM
same,"viability, T/C","second compound 0.01 µM, first compound 0.00949 µM",107%
same,"viability, T/C","second compound 0.01 µM, first compound 0.03 µM",112%
same,"viability, T/C","second compound 0.01 µM, first compound 0.0949 µM",90.5%
same,"viability, T/C","second compound 0.01 µM, first compound 0.3 µM",91.9%
same,"viability, T/C","second compound 0.01 µM, first compound 0.949 µM",112%
same,"viability, T/C","second compound 0.01 µM, first compound 3 µM",116%
same,"viability, T/C","second compound 0.0316 µM, first compound 0.00949 µM",119%
same,"viability, T/C","second compound 0.0316 µM, first compound 0.03 µM",114%
same,"viability, T/C","second compound 0.0316 µM, first compound 0.0949 µM",100%
same,"viability, T/C","second compound 0.0316 µM, first compound 0.3 µM",114%
same,"viability, T/C","second compound 0.0316 µM, first compound 0.949 µM",97.1%
same,"viability, T/C","second compound 0.0316 µM, first compound 3 µM",97%
same,"viability, T/C","second compound 0.1 µM, first compound 0.00949 µM",91.2%
same,"viability, T/C","second compound 0.1 µM, first compound 0.03 µM",116%
same,"viability, T/C","second compound 0.1 µM, first compound 0.0949 µM",97.2%
same,"viability, T/C","second compound 0.1 µM, first compound 0.3 µM",101%
same,"viability, T/C","second compound 0.1 µM, first compound 0.949 µM",114%
same,"viability, T/C","second compound 0.1 µM, first compound 3 µM",118%
same,"viability, T/C","second compound 0.316 µM, first compound 0.00949 µM",94.9%
same,"viability, T/C","second compound 0.316 µM, first compound 0.03 µM",106%
same,"viability, T/C","second compound 0.316 µM, first compound 0.0949 µM",106%
same,"viability, T/C","second compound 0.316 µM, first compound 0.3 µM",98.6%
same,"viability, T/C","second compound 0.316 µM, first compound 0.949 µM",96.1%
same,"viability, T/C","second compound 0.316 µM, first compound 3 µM",119%
same,"viability, T/C","second compound 1 µM, first compound 0.00949 µM",83.3%
same,"viability, T/C","second compound 1 µM, first compound 0.03 µM",108%
same,"viability, T/C","second compound 1 µM, first compound 0.0949 µM",115%
same,"viability, T/C","second compound 1 µM, first compound 0.3 µM",103%
same,"viability, T/C","second compound 1 µM, first compound 0.949 µM",105%
same,"viability, T/C","second compound 1 µM, first compound 3 µM",108%

# Reference: PubChem BioAssay AID1963430 (Molecular Pharmacology Branch, DTP, NCI, 2024)
